Experimental findings from patent US10246401B2, “Crystalline form of chlorogenic acid and preparation method thereof” (SICHUAN JIUZHANG BIOLOGICAL SCIENCE AND TECHNOLOGY CO., LTD., priority 2014, dated 2019) are described below.

“And” between values parts separate entries of the source, which are not always exact repeats. Equal values may be shown once.

Series [1] in a line: Long-term stability test of chlorogenic acid crystal form. The series is classed as physicochemical.
Series [2] in a line: Residual solvent by gas chromatography (internal standard method). The series is classed as physicochemical. Particulars: Chinese Pharmacopoeia limit 0.5%. As for the experimental part:
[…]; an appropriate amount of ethyl acetate was taken, weighed precisely, and N,N-dimethylformamide was added to prepare the solution containing 5 mg of ethyl acetate per 1 ml. 1 ml of the solution was accurately pipetted into a 10 ml volumetric flask, and 1 ml of the internal standard solution was precisely added, and diluted by adding N,N-dimethylformamide to the volume, and agitated to obtain the reference solution; 0.5 g of the chlorogenic acid crystal form prepared by Examples 1 and 2, and about 0.5 g of respective raw materials of each example, were taken and weighed precisely, then transferred to a 10 ml volumetric flask. 1 ml of the internal standard solution was added precisely, diluted with N,N-dimethylformamide to volume, and agitated, to obtain the testing solution. According to the gas chromatography method (the appendix V E of the second part of the Chinese Pharmacopoeia 2010), 30 m capillary column was used with 50% polyphenyl methylsiloxane as the stationary liquid, and its coating thickness was 1 μm. The column temperature was kept at 80° C. taking 1 μl of the reference solution and 1 μl of the testing solution were accurately taken, respectively, and injected into the gas chromatograph, to record the chromatogram. Calculating with the height ratio of peaks in accordance with internal standard method, the results are as follows: […]

The mark [3] stands for this setting: 0-48 months, 18±2° C., relative humidity 60±10%.
The mark [4] stands for this setting: 0 month, 18±2° C., relative humidity 60±10%.
The mark [5] stands for this setting: 3 months, 18±2° C., relative humidity 60±10%.
The mark [6] stands for this setting: 6 months, 18±2° C., relative humidity 60±10%.
Setting [7] is: 9 months, 18±2° C., relative humidity 60±10%.
The mark [8] stands for this setting: 12 months, 18±2° C., relative humidity 60±10%.
Where [9] appears, read: 18 months, 18±2° C., relative humidity 60±10%.
Setting [10] is: 24 months, 18±2° C., relative humidity 60±10%.
Setting [11] is: 36 months, 18±2° C., relative humidity 60±10%.
The mark [12] stands for this setting: 48 months, 18±2° C., relative humidity 60±10%.

`O=C(/C=C/c1ccc(O)c(O)c1)O[C@@H]1C[C@](O)(C(=O)O)C[C@@H](O)[C@H]1O` [Example 1, 3-O-caffeoylquinnic acid]: the “Content of chlorogenic acid over the long-term stability test” value in series [1] (setting [3]) is “above 98%”. Further, the “Stability (overall conclusion of long-term test)” value in series [1] (setting [3]) is on record as “good stability”. For the same compound, the Appearance entry in series [1] (setting [4]), in series [1] (setting [5]), in series [1] (setting [6]), in series [1] (setting [7]), in series [1] (setting [8]) and in series [1] (setting [9]) was “almost white” throughout. In addition, the Appearance result in series [1] (setting [10]), in series [1] (setting [11]) and in series [1] (setting [12]) was “almost white” each time. Moreover, the “Content (%)” value in series [1] (setting [4]) is 99.50% and 99.56% and 99.49%; in series [1] (setting [5]) it was 99.47% and 99.41% and 99.43%; in series [1] (setting [6]), 99.44% and 99.38% and 99.42%; in series [1] (setting [7]) it was 99.38% and 99.30% and 99.33%; in series [1] (setting [8]), 99.32% and 99.27% and 99.23%; in series [1] (setting [9]), 99.18% and 99.26% and 99.24%. Besides, the “Content (%)” value was 99.17% and 99.10% and 99.14% in series [1] (setting [10]); 99.13% and 99.05% and 99.02% in series [1] (setting [11]); 98.85% and 98.74% and 98.80% in series [1] (setting [12]). In addition, the “Loss on drying (%)” value was 2.32% and 2.31% and 2.29% in series [1] (setting [4]); 2.30% and 2.31% and 2.29% in series [1] (setting [5]); 2.31% and 2.29% and 2.28% in series [1] (setting [6]); 2.32% and 2.31% in series [1] (setting [7]); 2.28% and 2.31% and 2.29% in series [1] (setting [8]); 2.30% and 2.29% and 2.28% in series [1] (setting [9]). The “Loss on drying (%)” value is 2.32% and 2.30% and 2.31% in series [1] (setting [10]); 2.32% and 2.31% in series [1] (setting [11]); 2.34% and 2.38% and 2.36% in series [1] (setting [12]). Besides, the “Related substances (%) Other 2” value is 0.140% and 0.137% and 0.144% in series [1] (setting [4]); 0.142% and 0.151% and 0.148% in series [1] (setting [5]); 0.146% and 0.154% and 0.155% in series [1] (setting [6]); 0.162% and 0.167% and 0.165% in series [1] (setting [7]); 0.163% and 0.168% and 0.169% in series [1] (setting [8]); 0.179% and 0.174% in series [1] (setting [9]). Also, the “Related substances (%) Other 2” value in series [1] (setting [10]) is 0.178% and 0.187% and 0.185%; in series [1] (setting [11]), 0.190% and 0.194% and 0.196%; in series [1] (setting [12]), 0.219% and 0.222% and 0.218%. The “Related substances (%) Other 3” value in series [1] (setting [4]) was 0.205% and 0.214% and 0.218%; in series [1] (setting [5]) it was 0.230% and 0.237% and 0.228%; in series [1] (setting [6]) it was 0.234% and 0.240% and 0.231%; in series [1] (setting [7]), 0.255% and 0.261% and 0.252%; in series [1] (setting [8]), 0.260% and 0.264% and 0.265%; in series [1] (setting [9]) it was 0.279% and 0.270% and 0.272%. The “Related substances (%) Other 3” value in series [1] (setting [10]) is 0.278% and 0.292% and 0.286%; in series [1] (setting [11]) it was 0.299% and 0.301% and 0.302%; in series [1] (setting [12]), 0.303% and 0.309% and 0.306%. Further, the “Related substances (%) Other 4” value in series [1] (setting [4]) is 0.045% and 0.049% and 0.048%; in series [1] (setting [5]), 0.049% and 0.050% and 0.046%; in series [1] (setting [6]), 0.054% and 0.056% and 0.053%; in series [1] (setting [7]), 0.058% and 0.061% and 0.060%; in series [1] (setting [8]) it was 0.062% and 0.063%; in series [1] (setting [9]) it was 0.065% and 0.067%. Also, the “Related substances (%) Other 4” value in series [1] (setting [10]) was 0.070% and 0.074% and 0.072%; in series [1] (setting [11]), 0.076% and 0.074% and 0.078%; in series [1] (setting [12]), 0.092% and 0.095% and 0.091%. Also, the “Related substances In total (%)” value in series [1] (setting [4]) is 0.488% and 0.499% and 0.511%; in series [1] (setting [5]), 0.523% and 0.543% and 0.525%; in series [1] (setting [6]), 0.541% and 0.563% and 0.548%; in series [1] (setting [7]), 0.591% and 0.611% and 0.595%; in series [1] (setting [8]), 0.606% and 0.623% and 0.627%; in series [1] (setting [9]), 0.660% and 0.643% and 0.647%. Moreover, the “Related substances In total (%)” value in series [1] (setting [10]) was 0.666% and 0.697% and 0.685%; in series [1] (setting [11]), 0.713% and 0.719% and 0.732%; in series [1] (setting [12]), 0.770% and 0.787% and 0.772%. Also, the “Crystal form examination by microscope” value in series [1] (at the end of 12, 24, 36 and 48 months, 18±2° C., relative humidity 60±10%) is listed as “single lamellar crystal”. Further, the Stability on storage entry in series [1] (within 48 months, stored in the cool and dark place) is “does not change obviously”. The “Residual solvent Ethyl acetate (%)” value in series [2] (listed as Sample obtained in Example 1) was found to be 0.254%.
`O=C(/C=C/c1ccc(O)c(O)c1)O[C@@H]1C[C@](O)(C(=O)O)C[C@@H](O)[C@H]1O` [Raw material of Example 1, 3-O-caffeoylquinnic acid]: in series [2], the “Residual solvent Ethyl acetate (%)” value came to 1.764%.
`O=C(/C=C/c1ccc(O)c(O)c1)O[C@@H]1C[C@](O)(C(=O)O)C[C@@H](O)[C@H]1O` [Raw material of Example 2, 3-O-caffeoylquinnic acid]: the “Residual solvent Ethyl acetate (%)” value in series [2] stood at 2.314%.
For the compound `O=C(/C=C/c1ccc(O)c(O)c1)O[C@@H]1C[C@](O)(C(=O)O)C[C@@H](O)[C@H]1O` [Sample obtained in Example 2, 3-O-caffeoylquinnic acid], the “Residual solvent Ethyl acetate (%)” value in series [2] is 0.252%.
